Results published in US8507506B2, “Theophylline derivative inhibits osteoporosis” (Kaohsiung Medical University, priority 2011, dated 2013).

What was measured:
Format in all cases: cell-based
[1] = test system: RAW264.7 cells; test: BrdU assay, proliferation induced by RANKL; conditions: RAW264.7, 10 μM
Description: The BrdU assay was followed the instructions of Cell Proliferation ELISA BrdU kit. 10^3 cells were plated per well in 96-well plates. […] After washing in wash buffer for three times, 100 μl/well Substrate reaction was added and incubated for 30 minutes at room temperature.

[2] = test system: RAW264.7 cells; test: MTT assay, proliferation induced by RANKL; conditions: RAW264.7, 10 μM
Description: Cells were plated onto 96-well plates at a density of 10^3 cells per well. After 24 hours incubation, the different concentrations of the different drugs were administrated into the plates. […] Subsequently, the medium was removed, and 100 μl/well isopropanol was added to solved formazan. The plates were shaken for 15 minutes and stood for 15 minutes, and then the absorbance was measured at wavelength of 540 nm and 630 nm. The ratio of the absorbance of treated cells relative to that of the control cells was calculated and expressed as a percentage of cell survival.

[3] = test system: TRAP activity of RAW264.7 cells induced by RANKL; test: TRAP activity assay; conditions: 10 ng/ml RANKL for 5 days, 10 μM
Description: 10^3 cells were plated per well in 96-well plates. […] When the reaction fluid became yellow, 0.1 M, 100 μl/well NaOH was added to terminate the reaction, and OD405 was examined in 37° C. b) 3 μl/well supernatant was examined by Bio-Red DC Protein Assay to detect the protein concentration.

| Compound | cell proliferation induced by RANKL (BrdU assay) [1] | cell proliferation induced by RANKL (MTT assay) [2] | TRAP activity induced by RANKL [3] |
| --- | --- | --- | --- |
| Cn1c(=O)c2[nH]cnc2n(C)c1=O [theophylline] | have no previous inhibiting effect on cell proliferation induced by RANKL | have no previous inhibiting effect on cell proliferation induced by RANKL | have no obviously inhibiting effect on TRAP activity induced by RANKL |
| CCCc1nn(C)c2c(=O)[nH]c(-c3cc(S(=O)(=O)N4CCN(C)CC4)ccc3OCC)nc12 [sildenafil] |  |  | have no obviously inhibiting effect on TRAP activity induced by RANKL |
